# Earlier results in patent US12691079B2, “Biodissolvable film for localized and efficient treatment of vulvodynia” (The University of North Carolina at Chapel Hill, priority 2019, dated 2026).
# Tested on: vulvar vestibule
# Conditions: topical application to the vulvar vestibule
smiles,measurement,value
CCN(CC)CC(=O)Nc1c(C)cccc1C [lidocaine],duration of relief,30 to 60 min
